Experimental data published in US9056835B2, “LPA2 receptor-specific benzoic acid derivatives” (University of Tennessee Research Foundation, priority 2012, dated 2015).

System: vector- and LPA2-transduced MEF cells
Assay: Cell proliferation assay
Format: cell-based, mouse
Conditions: LPA 1 μM, OTP 1 μM, GRI977143 10 μM; for cell growth: LPA2-transduced MEF; for cell proliferation: vector-transduced MEF
Experimental: Mouse embryonic fibroblast (MEF) cells were isolated from E13.5 LPA1&2 double knockout (DKO) embryos. MEFs were transduced with empty vector or LPA2-containing lentiviruses and selected with 1.5 μg/ml puromycin. Cells were maintained in Dulbecco's modified Eagle medium (DMEM) supplemented with 10% (V/V) fetal bovine serum (FBS), 2 mM L-glutamine, 100 U/mL penicillin, and 100 μg/mL streptomycin. Serum-free medium contained 0.1% (W/V) BSA in DMEM. The rat intestinal epithelial cell line 6 (IEC-6) was obtained from the American Type Culture Collection (Rockville, Md.) at passage 13; passages 16-21 were used in all experiments. IEC-6 cells were maintained in a humidified 37° C. incubator in an atmosphere of 90% air and 10% CO2. Growth medium consisted of DMEM supplemented with 5% heat inactivated FBS, 10 μg/mL insulin, and 50 μg/mL gentamycin. The composition of the serum-starvation medium was the same as that of the full growth medium except that it contained no FBS. The McArdle rat hepatoma cell line (RH7777) stably expressing LPA2 receptors was a gift from Dr. Fumikazu Okajima (Gunma University, Maebashi, Japan). RH7777 cells stably expressing LPA1 or LPA3 receptors were generated in-house and had been characterized earlier. Wild type and LPA receptor (LPAR) stably transfected RH7777 cells were grown in DMEM supplemented with 10% FBS and 2 mM L-glutamine in the presence of 250 μg/ml G418. Chinese hamster ovary (CHO) cells stably expressing either vector or LPA4 receptor were a kind gift from Dr. Takao Shimizu (Tokyo University; Tokyo, Japan). Cells were cultured in Ham's F12 medium containing 10% FBS, 2 mM L-glutamine, and 350 μg/ml G418. Rat neuroblastoma cells (B103) were transduced with the lentivirus harboring wild type of FLAG-LPA5 and selected with puromycin to establish the stable cell lines. The stable cells were maintained in DMEM supplemented with 10% FBS and 0.4 μg/ml puromycin. GPR87- and P2Y10-expressing CHO cells and vector-transfected control cells were a gift from Dr. Norihisha Fujita (Ritsumeikan University; Shiga, Japan). The highly invasive MM1 rat hepatoma cells (gift from Dr. Michiko Mukai, Osaka University, Japan) were grown in suspension in DMEM supplemented with 10% (V/V) FBS, 2 mM L-glutamine, 100 U/mL penicillin, and 100 μg/mL streptomycin. Human umbilical vein endothelial cells (HUVEC) were purchased from VEC Technologies Inc. (Rensselaer, N.Y., USA) and cultured in MCDB-131 complete medium supplemented with 10% (V/V) FBS, 90 μg/mL heparin, 10 ng/mL EGF, 1 μg/mL hydrocortisone, 0.2 mg/mL EndoGrowth (VEC Technologies Inc.) supplement, 100 U/mL penicillin G, 100 μg/mL streptomycin, and 25 μg/mL amphotericin B.
For determination of the effect of the LPA receptor ligands on cell growth, vector- and LPA2-transduced MEF cells (2×10^4) were plated in each well of a 24-well plate in full growth medium. Cells were counted the next day and the medium was replaced with medium containing 1.5% (V/V) FBS supplemented with or without 1 μM LPA, 1 μM OTP, or 10 μM GRI977143. Media containing LPA, OTP, and GRI977143 were refreshed every 24 h. The growth rate was measured by counting the number of cells in triplicate using the Z1 Coulter Particle Counter (Beckman Coulter; Hileah, Fla.) as a function of time.

O=C(O)c1ccccc1SCCCN1C(=O)c2cccc3cccc(c23)C1=O [GRI977143]
cell growth: significant from 24 hours onwards
cell proliferation: did not cause a significant increase in vector cell proliferation except at 72 hours

CCCCCCCC/C=C\CCCCCCCC(=O)OC[C@@H](O)COP(=O)(O)O [LPA 18:1, Lysophosphatidic acid (18:1)]
cell growth: significant from 24 hours onwards
cell proliferation: no significant effect

octadecenyl thiophosphate [OTP]
cell growth: significant from 24 hours onwards
cell proliferation: significantly (p<0.001) increased
